The source of these data is patent US7282342B2, “Methods for detecting weakly immunogenic analytes” (Neuren Pharmaceuticals Ltd., priority 2001, dated 2007).

Residues, ends and D or L forms follow the SMILES beside them.

Assay [1] has as its system CK5 antibody. As to the kind of experiment: modified double antibody radioimmunoassay, displacement of I125-labeled Bolton and Hunter derivatized GPE. The assay is classed as binding, rabbit. The note with it: test substances Bolton and Hunter derivatized; CK5 at 1:18,000.
Assay [2] deals with CK5 antibody. Description: standard double antibody radioimmunoassay, displacement of I125-labeled YGPE. It counts as binding, rabbit. The settings on record: CK5 diluted 1:600; I125-labeled YGPE tracer. The method, then: The CK5 antibody was characterized using a standard double antibody radioimmunoassay technique. Tubes containing either 100 μL 0.02 M phosphate buffered saline assay buffer or peptide (GPE, YGPE (SEQ ID NO:4), KYFGGPE (SEQ ID NO:5), or IGF-1) dissolved in assay buffer at various concentrations were preincubated with CK5 antibody (diluted at 1:600) for 24 h at 4° C. I^125-labeled YGPE (10,000 cpm) was then added to the tubes. After a further 48 h incubation at 4° C., the bound and free GPE were separated by adding donkey anti-rabbit serum (1:100). The tubes were incubated with this second antibody overnight at 4° C. before centrifugation (3,200 rpm for 30 min), after which the supernatant was aspirated, and the precipitate counted in a gamma counter. One antibody, CK5, was identified. […] Unlabeled GPE was able to displace I^125-labeled YGPE with an ED50 of approximately 200 ng/tube.

With `N[C@@H](CCC(=O)O)C(=O)O` [glutamic acid], the “cross-reactivity with CK5 antibody” value with CK5 antibody [1] is reported as “does not cross-react significantly”.
On the same count and under the same terms, in the case of `O=C(O)[C@@H]1CCCN1` [proline] it was “does not cross-react significantly”; in that of `NC(N)=O` [urea], “does not cross-react significantly”.
On the same count and under the same terms, to `NCC(=O)O` [glycine] belongs “does not cross-react significantly”; to `O=C(O)CC[C@H](NC(=O)[C@@H]1CCCN1)C(=O)O` [PE, L-prolyl-L-glutamic acid] (H-Pro-Glu-OH), “does not cross-react significantly”.
The same measure, in the same setting: in the case of `NCC(=O)N1CCC[C@H]1C(=O)O` [GP, glycyl-L-proline] (H-Gly-Pro-OH) it was “does not cross-react significantly”.
As for “IGF-1: insulin-like growth factor-1, the GPE parent molecule”, the “cross-reactivity with CK5 antibody” value in the assay with CK5 antibody [1] and in the assay on CK5 antibody [2] was “does not cross-react significantly” throughout.
